Read-outs that look alike come from different tables or passages of the source.
Columns and labels:
HCT116 = test: cells; type: cell-based; details: Homo sapiens
SW480 = test: cells; type: cell-based; details: Homo sapiens
hGSK3b = target: T1, hGSK3b (Homo sapiens, UniProt P49841); test: Cerep LANCE kinase assay hGSK3b (S1 assay 34); type: biochemical; details: read-out: GSK3b
T1 construct: purchased Cerep (LANCE kinase assay platform, contract assay)

hp70S6K1 (RPS6KB1) = target: T2, hp70S6K1 (RPS6KB1) (Homo sapiens, UniProt P23443); test: Cerep LANCE kinase assay hp70S6K1 (S1 assay 31); type: biochemical; details: read-out: p70S6K1
T2 construct: purchased Cerep (LANCE kinase assay platform, contract assay)

[1] = test system: endothelial tube formation in co-cultures of ECFCs and ADSCs treated with VEGF; test: cells; type: cell-based, human
NCI-H716 cells = test: cells; type: cell-based, Human
HeLa cells = test: cells; type: cell-based; details: read-out: CellCycle G2/M
[2] = test system: HCT116 cells treated with a GSK3β inhibitor; test: cells; type: cell-based; details: Homo sapiens
hFLT3 = target: T3, hFLT3 (Homo sapiens, UniProt P36888); test: Cerep LANCE kinase assay hFLT3 (S1 assay 35); type: biochemical; details: read-out: FLT3
T3 construct: purchased Cerep (LANCE kinase assay platform, contract assay)

INS-1E cells = test: cells; type: cell-based, rat
DLD-1 = test: cells; type: cell-based; details: Homo sapiens
hJAK2 = target: T4, hJAK2 (Homo sapiens, UniProt O60674); test: Cerep LANCE kinase assay hJAK2 (S1 assay 33); type: biochemical; details: read-out: JAK2
T4 construct: purchased Cerep (LANCE kinase assay platform, contract assay)

[3] = test system: nuclear β-catenin in C2C12 cells; test: cells; type: cell-based
hKDR = target: T5, hKDR (Homo sapiens, UniProt P35968); test: Cerep LANCE kinase assay hKDR (S1 assay 32); type: biochemical; details: read-out: KDR
T5 construct: purchased Cerep (LANCE kinase assay platform, contract assay)

RKO = test: cells; type: cell-based; details: Homo sapiens, RKO, read-out: Basal_Viability ATP RKO
HT-29 = test: cells; type: cell-based; details: Homo sapiens, HT-29, read-out: Basal_Viability ATP HT-29
Colo320 = test: cells; type: cell-based; details: Homo sapiens, COLO 320, read-out: Basal_Viability ATP Colo 320
[4] = HCT-116, read-out: Basal_Viability ATP HCT116
[5] = SW480, read-out: Basal_Viability ATP SW480
[6] = Homo sapiens, read-out: Anti-Angiogenesis
[7] = Homo sapiens, NCI-H716, read-out: GLP 1 Secretion
[8] = HCT-116, read-out: GSK3b inh pretreated_Viability ATP HCT116
[9] = Rattus norvegicus, INS-1E, read-out: Insulin Secretion
[10] = DLD-1, read-out: Basal_Viability ATP DLD-1
[11] = Mus musculus, C2C12, read-out: Wnt Pathway

T4 sequence (O60674 whole entry): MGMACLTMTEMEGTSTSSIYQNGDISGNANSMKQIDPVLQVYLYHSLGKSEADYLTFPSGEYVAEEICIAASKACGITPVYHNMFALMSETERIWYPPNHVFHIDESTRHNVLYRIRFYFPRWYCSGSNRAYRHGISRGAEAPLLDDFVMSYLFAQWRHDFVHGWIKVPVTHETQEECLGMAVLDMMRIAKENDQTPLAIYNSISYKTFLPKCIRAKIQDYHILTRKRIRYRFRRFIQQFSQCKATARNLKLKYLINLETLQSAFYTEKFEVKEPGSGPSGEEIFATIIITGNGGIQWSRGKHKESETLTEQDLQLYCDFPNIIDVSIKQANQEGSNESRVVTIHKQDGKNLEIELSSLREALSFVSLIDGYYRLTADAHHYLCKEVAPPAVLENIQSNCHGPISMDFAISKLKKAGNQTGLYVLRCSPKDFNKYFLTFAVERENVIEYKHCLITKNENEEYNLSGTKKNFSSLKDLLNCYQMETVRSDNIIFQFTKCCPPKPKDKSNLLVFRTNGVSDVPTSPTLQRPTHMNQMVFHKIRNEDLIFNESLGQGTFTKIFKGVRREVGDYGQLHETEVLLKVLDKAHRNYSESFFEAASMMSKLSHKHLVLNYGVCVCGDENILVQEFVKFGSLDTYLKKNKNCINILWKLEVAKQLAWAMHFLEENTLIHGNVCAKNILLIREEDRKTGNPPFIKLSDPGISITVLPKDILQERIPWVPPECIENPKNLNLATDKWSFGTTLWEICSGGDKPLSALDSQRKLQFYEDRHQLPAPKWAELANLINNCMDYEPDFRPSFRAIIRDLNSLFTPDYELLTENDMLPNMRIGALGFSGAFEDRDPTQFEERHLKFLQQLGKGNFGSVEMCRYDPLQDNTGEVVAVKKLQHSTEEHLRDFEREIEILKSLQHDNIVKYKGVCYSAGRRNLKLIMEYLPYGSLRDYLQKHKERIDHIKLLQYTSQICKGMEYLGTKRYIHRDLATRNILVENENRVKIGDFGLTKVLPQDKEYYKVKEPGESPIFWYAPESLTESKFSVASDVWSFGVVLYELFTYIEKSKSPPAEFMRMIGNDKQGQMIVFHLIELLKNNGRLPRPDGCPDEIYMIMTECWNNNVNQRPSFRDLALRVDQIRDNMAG
T2 sequence (P23443 whole entry): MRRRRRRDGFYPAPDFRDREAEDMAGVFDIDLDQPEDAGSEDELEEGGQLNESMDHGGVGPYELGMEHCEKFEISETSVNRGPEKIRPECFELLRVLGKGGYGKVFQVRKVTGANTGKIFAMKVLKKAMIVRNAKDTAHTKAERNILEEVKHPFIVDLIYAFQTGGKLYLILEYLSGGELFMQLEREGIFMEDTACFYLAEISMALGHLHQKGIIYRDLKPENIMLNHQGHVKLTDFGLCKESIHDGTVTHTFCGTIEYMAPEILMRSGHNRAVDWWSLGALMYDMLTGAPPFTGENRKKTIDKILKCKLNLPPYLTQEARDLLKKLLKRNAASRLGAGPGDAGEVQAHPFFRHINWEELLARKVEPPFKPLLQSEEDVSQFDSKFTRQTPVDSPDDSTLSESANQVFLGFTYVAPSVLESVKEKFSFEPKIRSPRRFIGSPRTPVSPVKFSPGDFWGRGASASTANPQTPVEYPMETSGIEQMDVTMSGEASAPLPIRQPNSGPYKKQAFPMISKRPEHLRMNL
T5 sequence (P35968 20-1356): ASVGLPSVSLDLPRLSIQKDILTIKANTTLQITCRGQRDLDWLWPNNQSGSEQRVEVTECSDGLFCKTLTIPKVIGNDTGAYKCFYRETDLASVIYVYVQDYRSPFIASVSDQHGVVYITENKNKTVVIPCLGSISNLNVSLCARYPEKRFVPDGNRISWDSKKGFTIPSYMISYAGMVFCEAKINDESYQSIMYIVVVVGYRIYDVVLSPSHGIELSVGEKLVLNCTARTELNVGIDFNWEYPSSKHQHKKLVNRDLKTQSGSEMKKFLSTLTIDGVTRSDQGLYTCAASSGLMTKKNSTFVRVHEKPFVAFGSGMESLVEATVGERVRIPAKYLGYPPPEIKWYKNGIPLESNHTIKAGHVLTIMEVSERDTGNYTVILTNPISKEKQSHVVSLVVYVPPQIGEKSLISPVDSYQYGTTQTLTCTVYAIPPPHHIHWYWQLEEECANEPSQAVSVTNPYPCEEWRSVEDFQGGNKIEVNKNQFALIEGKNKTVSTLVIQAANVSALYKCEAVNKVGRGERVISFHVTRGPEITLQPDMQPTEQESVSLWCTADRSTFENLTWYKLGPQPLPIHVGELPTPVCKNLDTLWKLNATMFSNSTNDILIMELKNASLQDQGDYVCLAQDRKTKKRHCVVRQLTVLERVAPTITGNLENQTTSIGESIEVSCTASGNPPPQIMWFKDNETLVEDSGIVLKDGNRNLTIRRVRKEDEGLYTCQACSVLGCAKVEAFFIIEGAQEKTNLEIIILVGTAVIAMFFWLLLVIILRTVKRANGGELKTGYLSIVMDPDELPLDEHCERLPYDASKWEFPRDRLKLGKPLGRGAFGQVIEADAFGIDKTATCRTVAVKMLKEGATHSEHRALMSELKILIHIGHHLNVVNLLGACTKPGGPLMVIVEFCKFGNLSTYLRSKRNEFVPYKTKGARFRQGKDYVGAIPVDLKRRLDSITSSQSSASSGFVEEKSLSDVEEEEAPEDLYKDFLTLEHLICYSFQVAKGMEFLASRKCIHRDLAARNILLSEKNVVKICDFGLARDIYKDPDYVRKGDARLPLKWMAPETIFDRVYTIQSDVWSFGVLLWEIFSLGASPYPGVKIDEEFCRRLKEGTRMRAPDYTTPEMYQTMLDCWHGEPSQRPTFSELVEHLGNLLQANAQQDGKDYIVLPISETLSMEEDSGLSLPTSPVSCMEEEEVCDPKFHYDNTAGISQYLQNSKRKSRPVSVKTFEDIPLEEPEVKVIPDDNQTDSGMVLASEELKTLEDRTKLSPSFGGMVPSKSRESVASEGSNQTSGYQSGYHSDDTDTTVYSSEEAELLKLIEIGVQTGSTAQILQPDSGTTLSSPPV
T3 sequence (P36888 27-993): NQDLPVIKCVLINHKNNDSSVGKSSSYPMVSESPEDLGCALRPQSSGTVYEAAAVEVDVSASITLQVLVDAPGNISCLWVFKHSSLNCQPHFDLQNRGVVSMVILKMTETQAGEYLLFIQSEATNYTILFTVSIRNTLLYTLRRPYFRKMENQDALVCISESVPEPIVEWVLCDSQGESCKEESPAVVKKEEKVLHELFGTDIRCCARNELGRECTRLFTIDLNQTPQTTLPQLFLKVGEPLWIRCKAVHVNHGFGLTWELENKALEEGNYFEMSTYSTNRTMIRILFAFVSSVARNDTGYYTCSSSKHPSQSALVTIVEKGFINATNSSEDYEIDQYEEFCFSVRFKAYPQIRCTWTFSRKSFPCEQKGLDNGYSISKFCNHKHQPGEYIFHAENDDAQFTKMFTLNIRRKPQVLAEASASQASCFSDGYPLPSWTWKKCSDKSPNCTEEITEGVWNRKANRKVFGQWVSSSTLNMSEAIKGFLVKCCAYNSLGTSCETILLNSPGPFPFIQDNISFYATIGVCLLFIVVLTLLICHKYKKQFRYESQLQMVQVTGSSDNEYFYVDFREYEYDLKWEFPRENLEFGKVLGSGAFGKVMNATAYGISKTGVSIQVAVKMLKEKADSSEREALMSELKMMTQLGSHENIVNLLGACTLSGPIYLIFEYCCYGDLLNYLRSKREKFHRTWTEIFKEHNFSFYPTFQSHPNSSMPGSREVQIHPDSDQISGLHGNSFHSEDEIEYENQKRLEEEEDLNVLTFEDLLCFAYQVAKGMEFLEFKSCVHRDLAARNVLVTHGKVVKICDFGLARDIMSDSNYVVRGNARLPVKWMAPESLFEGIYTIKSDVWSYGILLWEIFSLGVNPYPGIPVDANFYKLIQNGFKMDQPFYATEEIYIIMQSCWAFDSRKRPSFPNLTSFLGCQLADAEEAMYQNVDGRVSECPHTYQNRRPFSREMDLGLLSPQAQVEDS
T1 sequence (P49841 whole entry): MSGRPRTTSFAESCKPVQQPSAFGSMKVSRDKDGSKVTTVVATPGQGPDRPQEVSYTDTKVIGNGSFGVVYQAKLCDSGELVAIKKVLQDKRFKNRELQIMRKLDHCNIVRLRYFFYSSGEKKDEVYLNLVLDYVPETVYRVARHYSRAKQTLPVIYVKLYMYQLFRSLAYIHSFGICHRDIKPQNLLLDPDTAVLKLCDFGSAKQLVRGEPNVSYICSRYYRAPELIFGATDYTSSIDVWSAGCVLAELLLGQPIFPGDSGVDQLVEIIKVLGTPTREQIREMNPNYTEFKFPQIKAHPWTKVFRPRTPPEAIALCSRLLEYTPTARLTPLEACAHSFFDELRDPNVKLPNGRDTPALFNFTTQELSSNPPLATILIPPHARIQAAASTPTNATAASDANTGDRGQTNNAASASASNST

Row | Compound | IC50 (HCT116; [4]) [µM] | IC50 (SW480; [5]) [nM] | IC50 (hGSK3b) [µM] | IC50 (hp70S6K1 (RPS6KB1)) [µM] | IC50 [1, 6] [nM] | EC50 (NCI-H716 cells; [7]) [µM] | EC50 (HeLa cells; Homo sapiens, HeLa) [nM] | IC50 [2, 8] [nM] | IC50 (hFLT3) [µM] | EC50 (INS-1E cells; [9]) [µM] | IC50 (DLD-1; [10]) [µM] | IC50 (hJAK2) [µM] | EC50 [3, 11] [nM] | IC50 (hKDR) [µM] | further results
1 | Nc1ncnc2c1ncn2CCOCP(=O)(O)O [Adefovir] | 9.01 | 2770 | > 20 | > 20 | 391 | > 10 | > 10000 | 584 | > 20 | > 10 | 2.68 | > 20 | 387 | > 20 | –
2 | CSc1ccc2c(c1)C(N1CCN(C)CC1)Cc1ccccc1S2 (stereo not drawn) [metitepine, reference compound] | 3.77 | 1900 | > 20 | > 20 | – | – | > 10000 | 4570 | > 20 | 2.94 | 4.39 | > 20 | – | > 20 | IC50 (HCT116; HCT-116, 72 h, read-out: HCT-116 viab. IC50): 3.8 µM; IC50 (SW480; SW480, 72 h, read-out: SW480 viab. IC50): 1900 nM; IC50 ([1]; Homo sapiens, read-out: Anti-Angio IC50): > 10000 nM; EC50 (NCI-H716 cells; Homo sapiens, NCI-H716, read-out: GLP1 sec. EC50): > 10 µM; IC50 ([2]; HCT-116, 72 h, read-out: HCT-116 (GSK3β) viab. IC50): 4600 nM; EC50 (INS-1E cells; Rattus norvegicus, INS-1E, read-out: Ins. sec. EC50): 2.9 µM; IC50 (DLD-1; DLD-1, 72 h, read-out: DLD-1 viab. IC50): 4.4 µM; EC50 ([3]; Mus musculus, C2C12, read-out: Wnt pot. EC50): > 20000 nM
3 | CC[C@]1(O)C[C@@H]2CN(CCc3c([nH]c4ccccc34)[C@@](C(=O)OC)(c3cc4c(cc3OC)N(C)[C@H]3[C@@](O)(C(=O)OC)[C@H](OC(C)=O)[C@]5(CC)C=CCN6CC[C@]43[C@@H]65)C2)C1 [Vinblastine] | – | – | > 20 | > 20 | 2.3 | > 10 | 3.2 | 1 | > 20 | > 10 | – | > 20 | 5.8 | > 20 | IC50 ([1]; read-out: Anti-Angiogenesis): 2.6 nM; IC50 (RKO): 1 nM; IC50 (HT-29): 1 nM; EC50 (HeLa cells): 4.83 nM; IC50 (Colo320): 1 nM; EC50 ([3]; read-out: Wnt Pathway): 3.5 nM
4 | COc1cc([C@@H]2c3cc4c(cc3[C@H](O)[C@H]3COC(=O)[C@H]23)OCO4)cc(OC)c1OC [Podofilox] | – | – | – | – | – | – | – | – | – | – | – | – | – | – | IC50 (HCT116; HCT-116, basal, HCT116, read-out: Basal_Viability ATP HCT116): 0.184 µM; IC50 (SW480; basal, SW480, read-out: Basal_Viability ATP SW480): 207 nM; IC50 (hGSK3b; kinase assay): > 20 µM; IC50 (hp70S6K1 (RPS6KB1); kinase assay): > 20 µM; IC50 ([1]; Homo sapiens; read-out: Anti-Angiogenesis): 8.1 nM; EC50 (NCI-H716 cells; Homo sapiens, NCI-H716; read-out: GLP 1 Secretion): > 10 µM; EC50 (HeLa cells; Homo sapiens, S2 Table, HeLa, 20 = no response at highest concentration): 7.7 nM; IC50 ([2]; HCT-116, HCT116 pretreated with GSK3b inhibitor, read-out: GSK3b inh pretreated_Viability ATP HCT116): 66.7 nM; IC50 (hFLT3; kinase assay): > 20 µM; EC50 (INS-1E cells; Rattus norvegicus, INS-1E; read-out: Insulin Secretion): > 10 µM; IC50 (DLD-1; basal, DLD-1, read-out: Basal_Viability ATP DLD-1): 0.182 µM; IC50 (hJAK2; kinase assay): > 20 µM; EC50 ([3]; Mus musculus, C2C12; read-out: Wnt Pathway): 9.1 nM; IC50 (hKDR; kinase assay): > 20 µM
5 | CCC(C)n1ncn(-c2ccc(N3CCN(c4ccc(OCC5COC(Cn6cncn6)(c6ccc(Cl)cc6Cl)O5)cc4)CC3)cc2)c1=O (stereo not drawn) [itraconazole] | 8.85 | 4330 | > 20 | > 20 | 1550 | > 10 | > 10000 | 8690 | > 20 | > 10 | > 20 | > 20 | > 10000 | > 20 | –
